T/C data for 19 compounds are collected here from PubChem BioAssay AID248 (DTP/NCI, 2004).

Inconclusive results and toxic doses are left out.

This assay concerns L1210 leukemia ip in BDF1 mice, survival T/C. Briefly: NCI In Vivo Anticancer Drug Screen. Data for tumor model L1210 Leukemia (intraperitoneal) in B6D2F1 (BDF1) mice. The settings on record: endpoint: mean survival time, higher = longer survival. The gist of the method:
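Survival endpoint. Drug-treated group vs vehicle group, expressed as T divided by C. Tumor passaged by transplantation.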

Setting [1] is: dose: 50.0 mg/kg/injection, schedule: Q01DX009 (ip), vehicle: Klucel (hydroxypropylcellulose) (HPC).
Where [2] appears, read: dose: 100.0 mg/kg/injection, schedule: Q01DX001 (ip), vehicle: Klucel (hydroxypropylcellulose) (HPC).
Setting [3] is: dose: 100.0 mg/kg/injection, schedule: Q01DX009 (ip), vehicle: Klucel (hydroxypropylcellulose) (HPC).
The mark [4] stands for this setting: dose: 200.0 mg/kg/injection, schedule: Q01DX001 (ip), vehicle: Klucel (hydroxypropylcellulose) (HPC).
Where [5] appears, read: dose: 200.0 mg/kg/injection, schedule: Q01DX009 (ip), vehicle: Klucel (hydroxypropylcellulose) (HPC).
Where [6] appears, read: dose: 400.0 mg/kg/injection, schedule: Q01DX001 (ip), vehicle: Klucel (hydroxypropylcellulose) (HPC).
Where [7] appears, read: dose: 100.0 mg/kg/injection, schedule: Q01DX001 (ip), vehicle: saline.
Where [8] appears, read: dose: 200.0 mg/kg/injection, schedule: Q01DX001 (ip), vehicle: saline.
[9] abbreviates: dose: 400.0 mg/kg/injection, schedule: Q01DX001 (ip), vehicle: saline.
Setting [10] is: dose: 100.0 mg/kg/injection, schedule: Q01DX001 (ip), vehicle: other.
Setting [11] is: dose: 100.0 mg/kg/injection, schedule: Q04DX003 (ip), vehicle: saline with Tween-80.
[12] abbreviates: dose: 200.0 mg/kg/injection, schedule: Q01DX001 (ip), vehicle: other.
Where [13] appears, read: dose: 200.0 mg/kg/injection, schedule: Q04DX003 (ip), vehicle: saline with Tween-80.
Setting [14] is: dose: 400.0 mg/kg/injection, schedule: Q01DX001 (ip), vehicle: other.
Where [15] appears, read: dose: 400.0 mg/kg/injection, schedule: Q04DX003 (ip), vehicle: saline with Tween-80.
[16] abbreviates: dose: 50.0 mg/kg/injection, schedule: Q01DX001 (ip), vehicle: carboxymethylcellulose (CMC).
Where [17] appears, read: dose: 100.0 mg/kg/injection, schedule: Q01DX001 (ip), vehicle: carboxymethylcellulose (CMC).
Where [18] appears, read: dose: 100.0 mg/kg/injection, schedule: Q04DX002 (ip), vehicle: Klucel (hydroxypropylcellulose) (HPC).
Where [19] appears, read: dose: 100.0 mg/kg/injection, schedule: Q04DX003 (ip), vehicle: Klucel (hydroxypropylcellulose) (HPC).
Where [20] appears, read: dose: 200.0 mg/kg/injection, schedule: Q04DX003 (ip), vehicle: Klucel (hydroxypropylcellulose) (HPC).
Setting [21] is: dose: 400.0 mg/kg/injection, schedule: Q04DX003 (ip), vehicle: Klucel (hydroxypropylcellulose) (HPC).
Setting [22] is: dose: 100.0 mg/kg/injection, schedule: Q01DX009 (ip), vehicle: saline with Tween-80.
Where [23] appears, read: dose: 200.0 mg/kg/injection, schedule: Q01DX009 (ip), vehicle: saline with Tween-80.
Setting [24] is: dose: 400.0 mg/kg/injection, schedule: Q01DX009 (ip), vehicle: saline with Tween-80.

With `O=C1C2C=CC=CC1C=C2`, the T/C was 89 % of control under setting [1]; 92 % of control under setting [2]; 112 % of control under setting [3]; 101 % of control under setting [4]; 91 % of control under setting [5]; 95 % of control under setting [6].
Take `CCC1(O)C(=O)OCc2c1ccn(Cc1ccc3ccccc3c1)c2=O` (configuration not stated): the T/C (dose: 25.0 mg/kg/injection, schedule: Q01DX001 (ip), vehicle: saline) was 92 % of control; the T/C (dose: 50.0 mg/kg/injection, schedule: Q01DX001 (ip), vehicle: saline) was 97 % of control; the T/C under setting [7] was 96 % of control; the T/C under setting [8] is 94 % of control.
Take `CCNC(=NC)c1ccc(NC(=O)c2ccc(C(=O)Nc3ccc(C(=NC)NCC)cc3)cc2)cc1`: the T/C was 98 % of control (dose: 1.3 mg/kg/injection, schedule: Q01DX Z (ip), vehicle: carboxymethylcellulose (CMC)); 96 % of control (dose: 1.9 mg/kg/injection, schedule: Q01DX Z (ip), vehicle: carboxymethylcellulose (CMC)); 153 % of control (dose: 2.9 mg/kg/injection, schedule: Q01DX Z (ip), vehicle: carboxymethylcellulose (CMC)); 119 % of control (dose: 4.4 mg/kg/injection, schedule: Q01DX Z (ip), vehicle: carboxymethylcellulose (CMC)); 116 % of control (dose: 6.6 mg/kg/injection, schedule: Q01DX Z (ip), vehicle: carboxymethylcellulose (CMC)); 110 % of control (dose: 10.0 mg/kg/injection, schedule: Q01DX Z (ip), vehicle: carboxymethylcellulose (CMC)). Moreover, the T/C (dose: 15.0 mg/kg/injection, schedule: Q01DX Z (ip), vehicle: carboxymethylcellulose (CMC)) is 98 % of control.
On to `Cc1c(/C=N\Nc2ccccc2)[nH]c(=O)[nH]c1=O`, for which the T/C under setting [7] is 92 % of control, the T/C under setting [8] was 92 % of control and the T/C under setting [9] was 86 % of control.
Consider `NCCSCC(N)C(=O)O` (configuration not stated), for which the T/C by setting is: (dose: 100.0 mg/kg/injection, schedule: Q04DX002 (ip), vehicle: saline) 92 % of control; (dose: 200.0 mg/kg/injection, schedule: Q04DX002 (ip), vehicle: saline) 92 % of control; (dose: 400.0 mg/kg/injection, schedule: Q04DX002 (ip), vehicle: saline) 109 % of control.
For the compound `NC(=O)NC1OC(CO)C(O)C(O)C1O` (configuration not stated), the T/C is 95 % of control (dose: 100.0 mg/kg/injection, schedule: Q01DX009 (ip), vehicle: saline); 94 % of control (dose: 200.0 mg/kg/injection, schedule: Q01DX009 (ip), vehicle: saline); 86 % of control (dose: 400.0 mg/kg/injection, schedule: Q01DX009 (ip), vehicle: saline).
In the case of `N#CCCCCCCCCCC#N`, the T/C is, setting by setting: (dose: 10.0 mg/kg/injection, schedule: Q04DX003 (ip), vehicle: Klucel (hydroxypropylcellulose) (HPC)) 93 % of control; (dose: 20.0 mg/kg/injection, schedule: Q04DX003 (ip), vehicle: Klucel (hydroxypropylcellulose) (HPC)) 100 % of control; (dose: 40.0 mg/kg/injection, schedule: Q04DX003 (ip), vehicle: Klucel (hydroxypropylcellulose) (HPC)) 109 % of control; under setting [3], 96 % of control.
Regarding `c1cc[c]([Bi]([c]2ccccc2)[c]2ccccc2)cc1`, the T/C (dose: 50.0 mg/kg/injection, schedule: Q01DX001 (ip), vehicle: other) is 95 % of control; the T/C under setting [10] was 97 % of control; the T/C under setting [11] was 97 % of control; the T/C under setting [12] is 97 % of control; the T/C under setting [13] is 102 % of control; the T/C under setting [14] is 97 % of control. The T/C under setting [15] is 103 % of control.
Take `C=CCN(CC=C)c1nc(Cl)nc(Cl)n1`: the T/C is 106 % of control under setting [16]; 98 % of control under setting [17]; 105 % of control under setting [18]; 101 % of control (dose: 200.0 mg/kg/injection, schedule: Q04DX002 (ip), vehicle: Klucel (hydroxypropylcellulose) (HPC)).
On to `O=C1OCCN1C(=O)c1ccc([N+](=O)[O-])cc1`, for which the T/C runs as follows: under setting [2], 97 % of control; under setting [3], 89 % of control; under setting [19], 97 % of control; under setting [4], 94 % of control; under setting [5], 94 % of control; under setting [20], 98 % of control. The T/C under setting [6] was 97 % of control; the T/C (dose: 400.0 mg/kg/injection, schedule: Q01DX009 (ip), vehicle: Klucel (hydroxypropylcellulose) (HPC)) is 88 % of control; the T/C under setting [21] is 98 % of control.
As for `O=C(CC(=O)c1cccnc1)NC(=O)c1ccccc1`, the T/C by setting is: under setting [10], 96 % of control; under setting [12], 86 % of control; under setting [14], 89 % of control.
Consider `O=c1oc(-c2ccccc2)nc2c(Cl)ccc(Cl)c12`, for which the T/C was 110 % of control (dose: 25.0 mg/kg/injection, schedule: Q01DX009 (ip), vehicle: Klucel (hydroxypropylcellulose) (HPC)); 105 % of control under setting [1]; 102 % of control (dose: 75.0 mg/kg/injection, schedule: Q01DX009 (ip), vehicle: Klucel (hydroxypropylcellulose) (HPC)).
As for `C=C1C[C@]23C[C@H](O)[C@]4(O)[C@@]5(C)C[C@H](O)C[C@]46C(C2[C@@H]1[C@@H](OC(=O)/C(C)=C/C)[C@@H](OC(=O)/C(C)=C/C)[C@H]36)N(C)C5` (some centres not stated), the T/C was 95 % of control under setting [16]; 106 % of control under setting [17]; 106 % of control (dose: 200.0 mg/kg/injection, schedule: Q01DX001 (ip), vehicle: carboxymethylcellulose (CMC)); 114 % of control (dose: 400.0 mg/kg/injection, schedule: Q01DX001 (ip), vehicle: carboxymethylcellulose (CMC)).
As to `CCc1cc(C)cc(OC(=O)Nc2ccc(Cl)c(Cl)c2)c1`, the T/C runs as follows: under setting [22], 97 % of control; under setting [19], 91 % of control; under setting [23], 92 % of control; under setting [20], 90 % of control; under setting [24], 94 % of control; under setting [21], 91 % of control.
`Nc1nc(N)c(CCCc2ccccc2)c(N)n1`: the T/C under setting [18] is 87 % of control.
As for `NNC(=O)C1CCCCN1` (configuration not stated), the T/C was 98 % of control (dose: 100.0 mg/kg/injection, schedule: Q01DX001 (ip), vehicle: water); 100 % of control (dose: 200.0 mg/kg/injection, schedule: Q01DX001 (ip), vehicle: water); 104 % of control (dose: 400.0 mg/kg/injection, schedule: Q01DX001 (ip), vehicle: water).
In the case of `O=S(=O)(CCCCl)Nc1ccccn1`, the T/C (dose: 100.0 mg/kg/injection, schedule: Q04DX002 (ip), vehicle: saline with Tween-80) is 100 % of control; the T/C (dose: 200.0 mg/kg/injection, schedule: Q04DX002 (ip), vehicle: saline with Tween-80) was 93 % of control; the T/C (dose: 400.0 mg/kg/injection, schedule: Q04DX002 (ip), vehicle: saline with Tween-80) is 93 % of control.
For the compound `CC(=O)c1ccc(Br)c([N+](=O)[O-])c1`, the T/C is 95 % of control under setting [7], 98 % of control under setting [8] and 103 % of control under setting [9].
In the case of `Cc1cccc(C2C(=O)c3ccccc3C2=O)n1`, the T/C under setting [22] was 88 % of control; the T/C under setting [11] was 95 % of control; the T/C under setting [23] was 89 % of control; the T/C under setting [13] is 99 % of control; the T/C under setting [24] was 91 % of control; the T/C under setting [15] was 88 % of control.
